Measured values from patent US6916446B1, “Bioreactor method, apparatus and product thereby” (The United States of America as represented by the …, priority 2002, dated 2005).
Like-named read-outs stand apart in the source and are kept apart here.

Columns and labels:
strain IMB-1 [1] = assay: Growth of strain IMB-1 on substrates in mineral salts medium (Balch tubes)
strain IMB-1 [2] = assay: 14C-MeBr oxidation assay on washed cell suspensions; assay type: cell-based, strain IMB-1 (ATCC 202197); settings: for MeBr oxidized: cells grown on the substrate indicated; for rate of MeBr oxidation, normalized for cell densities: cells grown on methylamine
[3] = substrate as electron donor / carbon and energy source

## CC(=O)O [acetate]
Strain IMB-1 [1]
  growth of strain IMB-1 on the substrate (in words): grows

## O=C(O)CC(O)(CC(=O)O)C(=O)O [citrate]
Strain IMB-1 [1]; [3]
  growth of strain IMB-1 on the substrate (in words): no growth occurred

## CNC [dimethylamine]
Strain IMB-1 [1]
  growth of strain IMB-1 on the substrate (in words): support growth

## O=CO [formate]
Strain IMB-1 [1]
  growth of strain IMB-1 on the substrate (in words): no growth occurred

## O=C(O)/C=C/C(=O)O [fumarate]
Strain IMB-1 [1]; [3]
  growth of strain IMB-1 on the substrate (in words): no growth occurred

## O=C(O)CC(O)C(=O)O (stereo not drawn) [malate]
Strain IMB-1 [1]; [3]
  growth of strain IMB-1 on the substrate (in words): weak growth

## C [methane]
Strain IMB-1 [1]; [3]
  growth of strain IMB-1 on the substrate (in words): no growth occurred

## CO [methanol]
Strain IMB-1 [1]; [3]
  growth of strain IMB-1 on the substrate (in words): no growth occurred

## CF [methyl fluoride]
Strain IMB-1 [2]
  MeBr oxidized: 0.0 pmol/10^6 cells/h
Strain IMB-1 [1]
  metabolized by strain IMB-1: not metabolized
Strain IMB-1 [1]; 2-22 μmol/tube added
  effect on uptake of MeBr or growth of IMB-1 on MeBr: did not affect
Strain IMB-1 [1]; [3]
  growth of strain IMB-1 on the substrate (in words): no growth occurred

## CI [methyl iodide]
Strain IMB-1 [2]; cultures incubated with 2 μmoles Mel
  rate of MeBr oxidation, normalized for cell densities: 1.4 pmol/10^6 cells/h
Strain IMB-1 [2]; cultures incubated with 5 μmoles Mel
  rate of MeBr oxidation, normalized for cell densities: 1.1 pmol/10^6 cells/h
Strain IMB-1 [2]; cultures incubated with 8 μmoles Mel
  rate of MeBr oxidation, normalized for cell densities: 1.1 pmol/10^6 cells/h
Strain IMB-1 [2]; cultures incubated with 10 μmoles Mel
  rate of MeBr oxidation, normalized for cell densities: 1.4 pmol/10^6 cells/h
Strain IMB-1 [2]
  MeBr oxidized: 2.4 pmol/10^6 cells/h
Strain IMB-1 [1]; [3]
  growth of strain IMB-1 on the substrate (in words): Growth was also obtained

## CN [monomethylamine]
Strain IMB-1 [1]; [3]
  growth of strain IMB-1 on the substrate (in words): support growth

## O=C(O)CCC(=O)O [succinate]
Strain IMB-1 [1]; [3]
  growth of strain IMB-1 on the substrate (in words): no growth occurred

## CN(C)C [trimethylamine]
Strain IMB-1 [1]; [3]
  growth of strain IMB-1 on the substrate (in words): support growth
